Reference: patent publication US10023536B2, “Suprametallogels and uses thereof” (Massachusetts Institute of Technology, priority 2014, dated 2018)

System: HeLa cells
Test: Cytotoxicity of the gel components against HeLa cells (MILLIQ water as control)
Type: cell-based
Conditions: components of the gel tested separately
Method: FIG. 27: cytotoxicities of (1) a gel formed from C-2 and Fe^2+ (“gel”), (2) PEG, and (3) Fe^2+ (“Fe”) against HeLa cells. MILLIQ water (“milliQ”) used as a control.
Because C-2 forms gels with Fe^2+ salts, which are biocompatible, these gels may have applications as therapeutic devices. First, the cytotoxicity of these gels was tested on HeLa cells to determine the effect of the components of the gels on cell viability. Due to the difficulty in assessing the toxicity of gel materials, the components of the gels were tested separately.

iron
cytotoxicity compared to MILLIQ water: little cytotoxicity
